Legend:
luciferase [1] = experiment: Additional luciferase substrate assay, compared to known analogue C-1 (Table 3); assay type: biochemical; conditions: relative to C-1 (=1); cell marked (75) instead of @100 uM
HeLa cells = experiment: Cell viability assay, HeLa; assay type: cell-based; conditions: 24 h incubation, serial dilution, FIGS. 3 and 4
Experimental: (§1) Cell Culture: HeLa and HEK293 cells were maintained in DMEM containing 0.3 mg/ml glutamine, 100 IU/ml penicillin, 100 μg/ml streptomycin, and 10% fetal calf serum at 37° C. in 5% CO2. Dulbecco's modified eagle medium (DMEM), Opti-MEM, Penicillin/Streptomycin, and Trypsin-EDTA were purchased from Life Technologies (Carlsbad). Fetal calf serum (FBS) was purchased from HyClone (GE Healthcare). Microtiter plates were purchased from Corning.
(§2) Cell viability assay: HEK293 or HeLa cells were plated in […] growth medium (DMEM supplemented with 10% FBS) into wells of white, TC-treated, 96-well plates at a density of 10000 cells per well and incubated for 24 h. The growth medium was then replaced with 100 μl Opti-MEM medium, which contained a serial dilution of the indicated compound. Changes in cell viability were then measured after incubation for 24 h using the […]® Green cell viability assay (Promega) according to manufacturer instructions. All luminescent measurements were performed on a GLOMAX® Discover multimode plate reader (Promega).

NanoLuc® Luciferase = NanoLuc® Luciferase (Oplophorus gracilirostris, UniProt Q9GV45, A31E/A60N/A81I/F95D/I117V/K70R/L54V/L99Q/M102K/N193R/P142E/Q151K/Q38R/Q45L/V71I/Y165I); assay type: biochemical; conditions: ratio to coelenterazine (=1); for I (relative light units, ratio in comparison to native coelenterazine): initial light output three minutes after substrate addition; for Half-life (signal half-life, ratio in comparison to native coelenterazine): read at five minute intervals
Experimental: (§3) Luminescence Assay Procedure: Each compound to be screened was dissolved in DMSO (5 mM) and then further diluted to 100 uM in NANO-GLOR Luciferase Assay Buffer. Each diluted substrate was then combined in equal volumes with purified NanoLuc® Luciferase diluted into CO2 independent media+10% FBS. Initial light output for each substrate was measured in a GloMax®-Multi+ luminometer three minutes after substrate addition and then at five minute intervals as a means to determine signal half-life.
A subset of the synthesized coelenterazine analogues (compounds of formula (I)) were evaluated for their suitability as luciferase substrates. NANOLUC® luciferase was employed for the screening because it is a small (19 kDa), stable, and particularly bright enzyme.

luciferase [2] = experiment: Additional luciferase substrate assay, compared to known analogue C-1 (Table 3); assay type: biochemical; conditions: relative to C-1 (=1)
Experimental: as §3
The compounds of formula (I) were also evaluated for their ability to be luciferase substrates in an additional assay.

HEK293 cells = experiment: Cell viability assay, HEK293; assay type: cell-based; conditions: Hek293, 24 h incubation, serial dilution; FIGS. 5 and 6
Experimental: as §1, §2

Chain of NanoLuc® Luciferase (Q9GV45 other isoform, or with tags, fused parts or gaps with the stated changes): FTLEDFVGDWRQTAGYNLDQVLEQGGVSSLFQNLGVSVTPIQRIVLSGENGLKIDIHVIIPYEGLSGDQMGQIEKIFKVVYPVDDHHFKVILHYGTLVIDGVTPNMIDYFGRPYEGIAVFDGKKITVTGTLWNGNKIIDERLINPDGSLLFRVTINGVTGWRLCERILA

COc1cc(F)ccc1Cc1nc2c(Cc3ccccc3)[nH]c(-c3ccccc3)cn-2c1=O [Compound 22] was tested, and the RLU (luciferase [1]) was 0.3 (75).
O=c1c(Cc2ccc(F)c(O)c2)nc2c(Cc3ccccc3)[nH]c(-c3ccccc3)cn1-2 [Compound 20] was tested, and the RLU (luciferase [1]) was 0.29 (75).
With Cc1ccc(Cc2nc3c(Cc4ccccc4)[nH]c(-c4ccccc4)cn-3c2=O)cn1 [Compound 76] the “compound-induced cellular toxicity compared to coelenterazine” value (HeLa cells) was “notably reduced toxicity”, the “I (relative light units, ratio in comparison to native coelenterazine)” value (NanoLuc® Luciferase) was 1.666 and the “Half-life (signal half-life, ratio in comparison to native coelenterazine)” value (NanoLuc® Luciferase) was 1.14. For the same compound, the “RLU (@100 uM)” value (luciferase [2]) was 0.04 and the “compound-induced cellular toxicity compared to coelenterazine” value (HEK293 cells) was “notably reduced toxicity”.
For N#Cc1cccc(Cc2nc3c(Cc4ccccc4)[nH]c(-c4ccccc4)cn-3c2=O)c1 [Compound 79], the “I (relative light units, ratio in comparison to native coelenterazine)” value (NanoLuc® Luciferase) was 13.87, the “Half-life (signal half-life, ratio in comparison to native coelenterazine)” value (NanoLuc® Luciferase) was 0.52 and the “RLU (@100 uM)” value (luciferase [2]) was 0.33.
O=c1c(Cc2ccc3ccccc3c2)nc2c(Cc3ccccc3)[nH]c(-c3ccccc3)cn1-2 [Compound 4] was tested, and the “I (relative light units, ratio in comparison to native coelenterazine)” value (NanoLuc® Luciferase) was 9.166, the “Half-life (signal half-life, ratio in comparison to native coelenterazine)” value (NanoLuc® Luciferase) was 0.72 and the “RLU (@100 uM)” value (luciferase [2]) was 0.22.
